From US5834453A, “Methods for the manufacture and use of antimicrobial sterol conjugates” (Lehigh University, priority 1997, dated 1998)
≈ marks a conversion by molar mass, not a printed value. Entries after “also recorded” stand apart in the source; their conditions may differ. Where two headings read alike, the source gives them in different places.

Assays:
[1] = system: various groups of microorganisms; assay: Antimicrobial activity (MIC), all microorganisms tested; type: cell-based; details: for MIC: 24 h, read-out: MICs against the various groups of microorganisms tested
Procedure: (§1) The antimicrobial activity of the compounds according to the present invention were compared with the results obtained for squalamine as reported in Proc. Nat. Acad. Sci. USA 90:1354 (1993), supra, the disclosure of which is incorporated in toto herein. The data reported in the following table is the minimum inhibitory concentration (MIC) required for complete inhibition of microbial growth. The MIC was determined utilizing known micro-broth dilution methods in which inocula of 10^6 /ml of the test organism were incubated in 0.5× trypticase soy broth at 35° C. for 24 hours. MIC's were also tested under various pH conditions, with calcium chloride or magnesium chloride, or with immobilized horse serum.
(§2) The numbers in parentheses contained in the table correspond to accession numbers with the American Type Culture Collection (reference strains were either obtained from the American Type Culture Collection or from the Microbiology Laboratory at Memorial Sloan-Kettering Cancer Center; Bacterial strains were maintained on Columbia 5% sheep blood agar plates, and fungi were maintained on Sabouraud Dextrose agar plates).

[2] = Hemolytic activity, minimal hemolytic concentration (MHC); type: cell-based, sheep;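 as to MCC: MCC here is the minimal hemolytic concentration (MHC)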
Procedure: (§3) Hemolytic activity of the squalamine mimics according to the present invention were also studied by incubating sheep red blood cells for 24 hours at 37° C. in saline (final concentration of 0.5%) with or without respective concentrations of the squalamine mimics. The minimal hemolytic concentration (MHC) was determined as the lowest concentration of a mimic that raised visible hemolysis.

sheep red blood cells = assay: as above; type: cell-based
Procedure: as §3

E. faecalis (29212) = assay: MIC, micro-broth dilution; type: cell-based; details: Enterococcus faecalis, 35° C., 24 hours, read-out: ANTIMICROBIAL ACTIVITY (MIC)
Procedure: as §1, §2

A. fumigatus (H29709) = assay: MIC, micro-broth dilution; type: cell-based; details: Aspergillus fumigatus, 35° C., 24 hours, read-out: ANTIMICROBIAL ACTIVITY (MIC)
Procedure: as §1, §2

E. faecium (T6480-9) = assay: MIC, micro-broth dilution; type: cell-based; details: Enterococcus faecium, 35° C., 24 hours, read-out: ANTIMICROBIAL ACTIVITY (MIC)
Procedure: as §1, §2

S. agalactiae (13813) = assay: MIC, micro-broth dilution; type: cell-based; details: Streptococcus agalactiae, 35° C., 24 hours, read-out: ANTIMICROBIAL ACTIVITY (MIC)
Procedure: as §1, §2

C. neoformans (90012) = assay: MIC, micro-broth dilution; type: cell-based; details: Cryptococcus neoformans, 24 h, read-out: ANTIMICROBIAL ACTIVITY (MIC)
Procedure: as §1, §2

S. epidermidis (12228) = assay: MIC, micro-broth dilution; type: cell-based; details: Staphylococcus epidermidis, 35° C., 24 hours, read-out: ANTIMICROBIAL ACTIVITY (MIC)
Procedure: as §1, §2

E. coli (25922) = assay: MIC, micro-broth dilution; type: cell-based; details: Escherichia coli, 35° C., 24 hours, read-out: ANTIMICROBIAL ACTIVITY (MIC)
Procedure: as §1, §2

E. cloacae (13047) = assay: MIC, micro-broth dilution; type: cell-based; details: Enterobacter cloacae, 35° C., 24 hours, read-out: ANTIMICROBIAL ACTIVITY (MIC)
Procedure: as §1, §2

P. vulgaris (13315) = assay: MIC, micro-broth dilution; type: cell-based; details: Proteus vulgaris, 35° C., 24 hours, read-out: ANTIMICROBIAL ACTIVITY (MIC)
Procedure: as §1, §2

S. pneumoniae (6305) = assay: MIC, micro-broth dilution; type: cell-based; details: Streptococcus pneumoniae, 35° C., 24 hours, read-out: ANTIMICROBIAL ACTIVITY (MIC)
Procedure: as §1, §2

K. pneumoniae (13883) = assay: MIC, micro-broth dilution; type: cell-based; details: Klebsiella pneumoniae, 24 h, read-out: ANTIMICROBIAL ACTIVITY (MIC)
Procedure: as §1, §2

P. aeruginosa (10145) = assay: MIC, micro-broth dilution; type: cell-based; details: Pseudomonas aeruginosa, 35° C., 24 hours, read-out: ANTIMICROBIAL ACTIVITY (MIC)
Procedure: as §1, §2

S. marcescens (13880) = assay: MIC, micro-broth dilution; type: cell-based; details: for MIC: Serratia marcescens, 24 h, read-out: ANTIMICROBIAL ACTIVITY (MIC)
Procedure: as §1, §2

A. fumigatus (H1120) = assay: MIC, micro-broth dilution; type: cell-based; details: Aspergillus fumigatus, 35° C., 24 hours, read-out: ANTIMICROBIAL ACTIVITY (MIC)
Procedure: as §1, §2

C. neoformans (M68979) = assay: MIC, micro-broth dilution; type: cell-based; details: Cryptococcus neoformans, 24 h, read-out: ANTIMICROBIAL ACTIVITY (MIC)
Procedure: as §1, §2

S. aureus (29213) = assay: MIC, micro-broth dilution; type: cell-based; details: Staphylococcus aureus, read-out: ANTIMICROBIAL ACTIVITY (MIC)
Procedure: as §1, §2

S. pyrogenes (19615) = assay: MIC, micro-broth dilution; type: cell-based; details: 24 h, read-out: ANTIMICROBIAL ACTIVITY (MIC)
Procedure: as §1, §2

P. aeruginosa (2853) = assay: MIC, micro-broth dilution; type: cell-based; details: Pseudomonas aeruginosa, 24 h, read-out: ANTIMICROBIAL ACTIVITY (MIC)
Procedure: as §1, §2

C. albicans (90028) = assay: MIC, micro-broth dilution; type: cell-based; details: Candida albicans, 35° C., 24 hours, read-out: ANTIMICROBIAL ACTIVITY (MIC)
Procedure: as §1, §2

S. aureus (25923) = assay: MIC, micro-broth dilution; type: cell-based; details: Staphylococcus aureus, 35° C., 24 hours, read-out: ANTIMICROBIAL ACTIVITY (MIC)
Procedure: as §1, §2

S. aureus (H20809) = assay: MIC, micro-broth dilution; type: cell-based; details: Staphylococcus aureus, 24 h, read-out: ANTIMICROBIAL ACTIVITY (MIC)
Procedure: as §1, §2

| Structure (SMILES) | MIC [1] | MIC (E. faecalis (29212)) | MIC (E. faecium (T6480-9)) | MIC (S. agalactiae (13813)) | MIC (S. epidermidis (12228)) | MIC (E. coli (25922)) | MIC (E. cloacae (13047)) | MIC (P. vulgaris (13315)) | MIC (S. pneumoniae (6305)) | MIC (K. pneumoniae (13883)) | MIC (P. aeruginosa (10145)) | MIC (S. marcescens (13880)) | MIC (A. fumigatus (H1120)) | MIC (C. neoformans (M68979)) | MIC (S. pyrogenes (19615)) | MIC (P. aeruginosa (2853)) | MIC (C. albicans (90028)) | also measured |
| --- | --- | --- | --- | --- | --- | --- | --- | --- | --- | --- | --- | --- | --- | --- | --- | --- | --- | --- |
| C[C@H](C(=O)NCCCCN)[C@H]1CC[C@H]2[C@@H]3CC=C4C[C@@H](O)CC[C@]4(C)[C@H]3CC[C@]12C [SM-3] | > 100 µg/mL |  |  |  |  |  |  |  |  |  |  |  |  |  |  |  |  |  |
| C[C@H](C(=O)NCCCCN)[C@H]1CC[C@H]2[C@@H]3CC=C4C[C@@H](OS(=O)(=O)O)CC[C@]4(C)[C@H]3CC[C@]12C [SM-4] | > 100 µg/mL |  |  |  |  |  |  |  |  |  |  |  |  |  |  |  |  |  |
| C[C@H](CCCNCCCNCCCCNCCCN)[C@H]1CC[C@H]2[C@@H]3CC[C@@H]4C[C@H](O)CC[C@]4(C)[C@H]3C[C@H](O)[C@]12C [SM-7H] |  | 6.25 µg/mL (≈ 11.1 µM) | 6.25 µg/mL (≈ 11.1 µM) | 0.78 µg/mL (≈ 1.39 µM) | 0.39 µg/mL (≈ 0.693 µM) | 6.25 µg/mL (≈ 11.1 µM) | 12.5 µg/mL (≈ 22.2 µM) | 6.25 µg/mL (≈ 11.1 µM) | 1.56 µg/mL (≈ 2.77 µM) | 12.5 µg/mL (≈ 22.2 µM) | 3.13 µg/mL (≈ 5.56 µM) | 12.5 µg/mL (≈ 22.2 µM) | 12.5 µg/mL (≈ 22.2 µM) | 0.39 µg/mL (≈ 0.693 µM) | 0.39 µg/mL (≈ 0.693 µM) | 3.13 µg/mL (≈ 5.56 µM) | 6.25 µg/mL (≈ 11.1 µM) | MCC at 24 h ([2]; sheep, red blood cells): 50 µg/mL; hemolytic activity (in words) (sheep red blood cells): unwanted hemolytic activity; MIC (A. fumigatus (H29709)): 12.5 µg/mL (≈ 22.2 µM); MIC (C. neoformans (90012)): 0.39 µg/mL (≈ 0.693 µM); activity against S. marcescens (S. marcescens (13880); in words): found even against S. marcescens; also recorded: effective against S. marcescens; MIC (S. aureus (29213); S. aureus (29213), 35° C., 24 hours): 0.78 µg/mL (≈ 1.39 µM) |
| C[C@H](CCC(=O)NCCCNCCCCNCCCN)[C@H]1CC[C@H]2[C@@H]3[C@H](O)C[C@@H]4C[C@H](O)CC[C@]4(C)[C@H]3C[C@H](O)[C@]12C [SM-13, cholic acid-spermine conjugate] |  | 50 µg/mL (≈ 84.3 µM) | 50 µg/mL (≈ 84.3 µM) | 12.5 µg/mL (≈ 21.1 µM) | 3.13 µg/mL (≈ 5.28 µM) | 25 µg/mL (≈ 42.2 µM) | > 100 µg/mL | > 100 µg/mL | 25 µg/mL (≈ 42.2 µM) | > 100 µg/mL | 25 µg/mL (≈ 42.2 µM) | > 100 µg/mL | 25 µg/mL (≈ 42.2 µM) | 3.13 µg/mL (≈ 5.28 µM) | 3.13 µg/mL (≈ 5.28 µM) | 25 µg/mL (≈ 42.2 µM) | 12.5 µg/mL (≈ 21.1 µM) | minimal hemolytic concentration (MHC) at 24 h ([2]; sheep red blood cells, 24 hours at 37° C. in saline): > 100 µg/mL; MIC (S. aureus (29213); 24 h): 12.5 µg/mL (≈ 21.1 µM); MIC (S. aureus (25923)): 6.25 µg/mL (≈ 10.5 µM); MIC (S. aureus (H20809)): 6.25 µg/mL (≈ 10.5 µM); antimicrobial activity (in words) [1]: lesser activity; also recorded: more activity than SM-8, SM-14, and SM-22 |
| C[C@H](CCC(=O)NCCCNCCCCNCCCN)[C@H]1CC[C@H]2[C@@H]3[C@H](OS(=O)(=O)O)C[C@@H]4C[C@H](OS(=O)(=O)O)CC[C@]4(C)[C@H]3C[C@H](OS(=O)(=O)O)[C@]12C [SM-14] | > 100 µg/mL |  |  |  |  |  |  |  |  |  |  |  |  |  |  |  |  |  |
